Test [1] concerns the target T1, rMGD A (overexpressed spinach MGDG synthase) (Spinacia oleracea, UniProt Q9SM44).
T1 construct: Two mature forms of MGDG synthase are overexpressed in E. coli; additional initiation methionine (N); made in house; host or cells: E. coli BL21(DE3), plasmid pET-Y 3a; solubilised with CHAPS and partially purified on hydroxyapatite
T1 sequence (Q9SM44 99-522): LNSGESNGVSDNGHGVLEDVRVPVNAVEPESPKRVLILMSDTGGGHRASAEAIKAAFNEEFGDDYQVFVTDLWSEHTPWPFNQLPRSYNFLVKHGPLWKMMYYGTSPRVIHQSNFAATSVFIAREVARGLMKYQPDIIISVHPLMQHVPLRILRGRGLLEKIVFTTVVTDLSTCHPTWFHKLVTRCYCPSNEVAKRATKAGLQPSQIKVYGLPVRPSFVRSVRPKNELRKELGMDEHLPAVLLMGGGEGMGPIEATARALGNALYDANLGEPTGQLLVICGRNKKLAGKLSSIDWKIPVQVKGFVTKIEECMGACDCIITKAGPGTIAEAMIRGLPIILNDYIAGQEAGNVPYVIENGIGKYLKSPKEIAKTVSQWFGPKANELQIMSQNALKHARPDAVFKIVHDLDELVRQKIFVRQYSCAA
The test is described as follows: Galactosylation activity of partially purified recombinant MGDG synthase (rMGD A), measured with micelles and UDP-[14C]gal. It is filed as biochemical. The settings on record: for Inhibition of rMGD A activity (in words): overexpressed rMGD A; for activity at 150 µM: 150 μM NEM 10 min, % of control. The method, then:
The activity of the MGDG synthase is measured on various types of sample, depending on the model chosen: plastidial membrane, membrane fractions of E. coli overexpressing a recombinant MGDG synthase (rMGD A, 0.7 μg protein/assay, enzyme extracted beforehand from a plant (see Example 1)).
1.3 mM of phosphatidylglycerol (PG) and 160 μM of diacylglycerol (DAG) are dissolved in chloroform. After evaporating the solvent under argon, 200 μl of incubation medium containing 50 mM of MOPS-NaOH, pH 7.8, 4.5 mM OF CHAPS, 1 mM of DTT, 250 mM of KH2PO4/K2HPO4 and 250 mM of KCl are added and the medium is mixed vigorously so as to resuspend the lipids. 100 μl of fractions containing the MGDG synthase, in the incubation medium, are introduced then the medium is again mixed vigorously and then maintained at 20° C. for 1 h.
The reaction in the incubation mixture is then initiated by adding 1 mM of UDP-[^14C]gal (37 Bq/μmol). After 10 min to 1 h, the reaction is stopped by adding a chloroform/methanol mixture (1:2, v/v), the lipids are extracted in accordance with the method of Bligh et al (Can. J. Biochem. Physiol, 1959, 37, 911-917) and the radioactivity of the labeled galactolipids is determined by liquid scintillation counting as described in Covès et al. (FEBS lett., 1986, 208, 401-406). The activity is expressed in μmol of galactose incorporated/h/mg of protein.
The fractions of partially purified rMGD A are desalified by chromatography on a Biogel P6-DG (Bio-Rad) column (Pharmacia, C10/40 column, 30 ml of gel) equilibrated in DTT. Aliquots (200 μl) of the fractions are incubated for 40 minutes at 25° C. with gentle stirring, in the presence or absence of DTT. The galactosylation activity is then measured as specified above (see Example 3).
In order to obtain the results summarized in Table II, the rMGD A is desalified by chromatography on a Biogel P6-DG (Bio-Rad) column (Pharmacia, C10/40, column, 30 ml of gel) equilibrated in DTT. Aliquots (200 μl) of the fractions are incubated for 30 minutes at 25° C. with gentle stirring, followed by a 10 min incubation in the presence or absence of 150 μM NEM and then a 10 min incubation in the presence or absence of DTT. The galactosilyation activity is then measured as specified above (see Example 3).

In test [2] the target is T2, MGDG synthase partially purified from spinach leaf chloroplasts (Spinacia oleracea, UniProt Q9SM44).
T2 construct: the MGDG synthase partially purified from spinach leaf chloroplasts; host or cells: spinach leaf chloroplasts (envelope membranes)
T2 sequence (Q9SM44 99-522): T1 sequence (Q9SM44 99-522)
The settings on record: chloroplast envelope enzyme, Maréchal et al., J. Biol. Chem., 1995; cited from earlier work.

Consider `O[C@H](CS)[C@H](O)CS` (racemic) [DTT, dithiothreitol], for which the “Effect of DTT on rMGD A activity after desalification (in words)” value in test [1] (DTT removed on Biogel P6-DG column, DTT added back) was “maintains its activity”. Further, the “Activity (%)” value came to 75% in test [1] (desalified hydroxyapatite fraction + 1 mM DTT, 40 min at 25° C., percentage of the control (not desalified) activity) and 65% in test [1] (desalified hydroxyapatite fraction + 10 mM DTT, 40 min at 25° C., percentage of the control (not desalified) activity). For the same compound, in test [1] (desalified rMGD A, pre-incubation 30 min without addition, no NEM, then 10 mM DTT 10 min, % of control (50 min in 10 mM DTT)), the activity at 10000 µM amounted to 101%. In addition, in test [2], the “Protection of enzyme activity against oxidation (in words)” value is on record as “can protect the activity of the enzyme against oxidation”.
On to `CCN1C(=O)C=CC1=O` [NEM, N-ethylmaleimide], for which, in test [1], the “Inhibition of rMGD A activity (in words)” value is listed as “very sensitive”. Also, the activity at 150 µM in test [1] (pre-incubation 30 min with DTT, no further DTT incubation, reaction + PG + DAG + UDP-gal) amounted to 108%; in test [1] (pre-incubation 30 min with PG + DAG, then 10 mM DTT 10 min, reaction + UDP-gal), 60%; in test [1] (pre-incubation 30 min with PG, then 10 mM DTT 10 min, reaction + DAG + UDP-gal), 56%; in test [1] (pre-incubation 30 min with UDP-gal, then 10 mM DTT 10 min, reaction + PG + DAG) it was 32%; in test [1] (pre-incubation 30 min without addition, then 10 mM DTT 10 min, reaction + PG + DAG + UDP-gal), 35%. In addition, the “Inhibition of the enzyme (in words)” value in test [2] is reported as “powerful inhibitors”.
For the compound `c1cnc2c(c1)ccc1cccnc12` [orthophenanthroline], in test [1], the “Inhibition of rMGD A activity (in words)” value is “inhibited”. Further, the “Activity (%)” value in test [1] (with orthophenanthroline, no other additions, initial activity (time 0) = 100) is recorded as 43%; in test [1] (with orthophenanthroline, other addition PG, initial activity (time 0) = 100), 27%; in test [1] (with orthophenanthroline, other addition UDP-gal, initial activity (time 0) = 100) it was 17%; in test [1] (with orthophenanthroline, other additions PG + DAG, initial activity (time 0) = 100), 92%. In addition, the “Inhibition of the enzyme (in words)” value in test [2] is given as “powerful inhibitors”.

The record behind these values is patent US6924092B1, “Screening method involving MGDG synthase” (Commissariat a L'Energie Atomique, priority 1999, dated 2005).
